In patent publication US11752122B2 (OKLAHOMA MEDICAL RESEARCH FOUNDATION, priority 2018, dated 2023):
Entries after “also recorded” stand apart in the source; their conditions may differ.

Columns and labels:
[1] = cited from earlier work
[2] = tested on: TGF-β1platelet-KO-LDLR mice on HFD; experiment: Aortic stenosis progression in TGF-β1platelet-KO-LDLR mice on HFD, echocardiography; type: in vivo; conditions: TGF-β1platelet-KO-LDLR mice on HFD treated with NAC
Excerpt: Mice. Hypercholesterolemic mice deficient for low-density lipoprotein receptors (Ldlr−/−), which only express ApoB-100 (Ldlr−/−Apob100/100, LDLR), were obtained from Jackson Laboratories (B6; 129SLdlrtm1HerApobtm2Sgy/J, stock no. 003000). WT C57bl/6 mice were also obtained from the Jackson Laboratory (stock no. 000664) and served as controls. TGF-β1^platelet-KO-LDLR mice (Pf4Cre+Tgfb1f/f;Ldlr−/−Apob100/100;) and TGF-β1^flox-LDLR littermate controls (Tgfb1f/f;Ldlr−/−Apob100/100) were generated by crossing LDLR mice with Pf4Cre+;Tgfb1f/f mice, as shown in FIGS. 7A-B and Supplemental Table 5. […]
Experimental Design. […] Progression and severity (mild/moderate/severe) of AS were monitored at 0, 3, 6 and 9 months by echocardiography using non-invasive ultrasound imaging techniques. […]
Echocardiography. […] Electrode gel was used to enhance the physiologic readings. To ensure accuracy of all echo measurements, physiological parameters were monitored and recordings were only taken if the heart rate was 430-550 beats per minute, respiration was 20-100 breaths per minute, and body temperature was close to 37° C. […]
Measurement of AS parameters using a modified view of ultrasound imaging. […] LVOT was measured from the long-axis view and was used to calculate AV pressure and normalize the cusp separation (Lindman et al., 2016; Meyer et al., 2012). […]

Q: Which Urine excretion ([1]; in vivo) does the source give for `CC(=O)N[C@@H](CS)C(=O)O` [NAC, N-acetylcysteine] here?
A: Its Urine excretion is 22-30%.

Q: What about the metabolism ([1]; liver) of the same compound?
A: Its metabolism is “extensively liver metabolized”.

Q: And the AS progression [2]?
A: The AS progression was “little to no further reduction; also recorded: did not show any effect”.
